Assay results: PMC6331910, “The Curcumin Analogue 1,5-Bis(2-hydroxyphenyl)-1,4-pentadiene-3-one Induces Apoptosis and Downregulates E6 and E7 Oncogene Expression in HPV16 and HPV18-Infected Cervical Cancer Cells” (Molecules, 2015)

Tests used:
Format in all cases: cell-based, human
CaSki [1] = test: DNA fragmentation, Cell Death Detection ELISA (cytoplasmic nucleosomal enrichment)
Procedure: (§1) HeLa, 9 μM] at various time points. Each experiment included a set of untreated control cells (Media with DMSO alone). The enrichment of the cytoplasm of treated cells by mono- and oligonucleosomes are used to study whether enhanced DNA fragmentation is induced by diarylpentanoid treatment. This determination was made following the manufacturer’s instructions of the Cell Death Detection ELISA^PLUS kit (Roche Diagnostics, Mannheim, Germany). […] Following treatment, the cells were incubated in lysis buffer and centrifuged, after which the supernatant was transferred to streptavidin coated plates and shaken with the provided immunoreagent (mixture of anti-DNA-POD and anti-histone biotin) for 2 h. […] Enrichment factor, defined as the release of mono- and oligonucleosomes into the cytoplasm, was calculated using the formula below: (4) Enrichment factor =Absorbance of Test − Absorbance of Blank (substrate only)/Absorbance of Control − Absorbance of Blank (substrate only)

HeLa [2] = test: MTT cell viability (dose-dependent cytotoxicity) assay, 72 h
Procedure: (§2) Control-treated wells contained cells incubated in media with equal volumes of DMSO (0.2%). […] The media was aspirated and cells were incubated in 100 µL complete medium with 0.5 mg/mL MTT solution for 4 h in the dark to allow metabolism of MTT by cellular mitochondrial dehydrogenases. The excess MTT was aspirated and the formazan crystals formed were dissolved by the addition of 100 µL of DMSO. The absorbance of dark blue formazan was read at 570/650 nm wavelengths using a microplate reader (Bio-Rad Benchmark Plus Microplate Spectrophotometer, Hercules, CA, USA). Triplicate absorbance values were averaged and the effect of the compounds on growth inhibition was assessed as percentage cell viability as follows: […] The results were analysed using GraphPad Prism version 6.00 for Windows (GraphPad Software, La Jolla, CA, USA). […] Overall EC50 was determined by taking the average EC50 from three independent experiments.

CaSki [3] = test: as above; conditions: for reduction in cell viability: CaSki
Procedure: as §2

HeLa [4] = test: DNA fragmentation, Cell Death Detection ELISA (cytoplasmic nucleosomal enrichment)
Procedure: as §1, with “Each” for “HeLa, 9 μM] at various time points. Each”

[5] = tested on: caspase-3 activity in HeLa cells; test: Caspase-3 colorimetric assay (relative caspase-3 activity); conditions: all time points and doses (3, 6, 9 μM)
Procedure: (§3) HeLa, 9 μM] at various time points. Each experiment included a set of untreated control cells (Media with DMSO alone). Caspase-3 activity was assessed using the Caspase-3 Colorimetric Assay Kit (Sigma Aldrich), following the manufacturer’s instructions. […] Following treatment, the cells were washed in PBS and suspended in a lysis buffer (50 mM HEPES pH 7.4, 5 mM CHAPS, 5 mM DTT) for 25 min at a concentration of 10^7 cells per 100 μL of buffer. Lysed cells were centrifuged at 16,000× g, 4 °C for 30 min. Lysate protein concentration was determined using the Cayman Chemical Protein Determination (Cayman Chemical Company, Ann Arbor, MI, USA) kit which is a colorimetric method for total protein quantification based on the Bradford method. In short, 100 μL of protein samples was diluted in 96-well plates and 100 μL of the assay reagent was added to the samples, incubated for 5 min and the absorbance measured at 595 nm. Protein concentrations were calculated from a regression line fit to a series of standard protein dilutions assays on the same plate as the unknown samples. […] The effect of Ac-DEVD-CHO, a caspase-3 inhibitor, on caspase-3 activity was studied simultaneously. As per the manufacturer’s instructions, 10 μL of the inhibitor Ac-DEVD-CHO (200 μM) was added to a well containing the assay buffer, followed immediately by the cell lysate and 10 μL of the substrate Ac-DEVD-pNA (2 mM). Caspase-3 activity was assessed by measuring the absorbance released by the pNA molecule at 405 nm using a Bio-Rad Benchmark Plus Microplate Spectrophotometer. Caspase-3 activity was expressed by measuring the ratio of the mean caspase-3 activity of treated cells relative to untreated cells.

[6] = tested on: caspase-3 activity in CaSki cells; test: as above
Procedure: as §3

SMILES: O=C(C=Cc1ccccc1O)C=Cc1ccccc1O [MS17, 1,5-bis(2-hydroxyphenyl)-1,4-pentadiene-3-one]
- increase in nucleosome enrichment (CaSki [1]; 4 μM, 24 h, vs untreated): 5 fold
- enrichment factor (CaSki [1]; 48 h): no significant difference between doses
- enrichment factor (CaSki [1]; 72 h): no significant reduction
- Selective Index HeLa (HeLa [2]; EC50 (MRC9)/EC50 (HeLa) × 100): 177
- cell viability (HeLa [2]; HeLa, 12.5 to 100 μM, 72 h): less than 10%
- EC50 (HeLa [2]; Homo sapiens, HeLa, MTT, 72 h, read-out: EC50 (Mean ± S.E.M.) HeLa): 2600 ± 900 nM
- viability at 3.1 µM (HeLa [2]; Homo sapiens, HeLa, 3.1 μM, 72 h): 36%
- viability at 6.3 µM (HeLa [2]; Homo sapiens, HeLa, 6.3 μM, 72 h): 14%
- reduction in cell viability (CaSki [3]; 1.6 μM, 72 h): 30%
- reduction in cell viability (CaSki [3]; 3.1 to 100 μM, 72 h): 90%
- Selective Index CaSki (CaSki [3]; EC50 (MRC9)/EC50 (CaSki) × 100): 447
- EC50 (CaSki [3]; Homo sapiens, Ca-Ski, MTT, 72 h, read-out: EC50 (Mean ± S.E.M.) CaSki): 1030 ± 500 nM
- increase in nucleosome enrichment (HeLa [4]; 6 μM, 24 h, vs untreated): 2.2 fold
- increase in enrichment factor (HeLa [4]; 6 μM, 48 h, vs untreated): approximately two-fold
- enrichment factor (HeLa [4]; 6 and 9 μM, 72 h): significant reduction of enrichment factor
- relative caspase-3 activity [5]: no significant differences
- relative caspase-3 activity ([6]; 2 μM): low caspase-3 activity
- relative caspase-3 activity ([6]; 4 μM, 48 h): increased activity
- relative caspase-3 activity ([6]; 6 μM, 24 h, treated over untreated): threefold increase
